Patent US20220362299A1, “ENGINEERED NATURAL KILLER CELLS AND METHODS FOR USING THE SAME IN IMMUNOTHERAPY AND AUTOPHAGY INHIBITON TECHNIQUES” (Purdue Research Foundation, priority 2019, published 2022)

Assays:
[1] = tested on: GBM43 cells; test: ELISA of CCL5 and CXCL10 in supernatant of GBM43 cells; assay type: cell-based, human; conditions: with CQ 50 μM, 24 h
Description: To evaluate changes in the protein levels of these chemokines and gain more insight into the underlying molecular mechanisms, chemokine concentrations were quantified in the conditioned media of CQ-treated GBM43 cells using ELISA in absence and presence of various pharmacological inhibitors driving signaling pathways for these chemokines. This included the PI3K inhibitor LY294002, NF-κB inhibitor BAY11-7082 and JNK inhibitor SP600125.
More specifically, to measure secreted CCL5 and CXCL10, GBM43 cells were treated with CQ at a final concentration of 50 μM in presence or absence of various small molecule inhibitors, including LY294002, BAY11-7082 and SP600125 for 24 hours. Supernatants were collected and the levels of CCL5 and CXCL10 were quantified using Human CCL5 and CXCL10 Biolegend-ELISA MAX™ Deluxe Sets according to the manufacturer's directions. To look at the levels of multiple chemokines secretion from GBM43 cells, the cell culture supernatants were also collected and all the selected targets were determined with the chemokine array provided by Eve Technologies (Calgary, Canada).

[2] = tested on: pNK cells; test: Effect of adenosine on pNK cell viability (CCK-8) and NKG2D expression (flow cytometry); assay type: cell-based, human; conditions: 1000 μM adenosine, 24 h
Procedure: To verify this, pNK cells were seeded into a 24-well plate at a density of 5×10^5 cells/well in 500 μL medium. Adenosine was then added to a final concentration of 1000 μM. After 24 h, the cells were collected and their viability (%) was determined via a CCK-8 assay (subpart A of FIG. 2). The NKG2D expression (% and MFI) was determined by flow cytometry (subpart B of FIG. 2). […] These findings support that there is a need to increase NKG2D expression on NK cells through engineering.

[3] = tested on: pNK cells; test: Transwell BBB migration assay of pNK cells; assay type: cell-based, human; conditions: 100 ng/mL in lower chamber, 6 hours
Procedure: To determine involvement of CCL5 and CXCL10 in the migration of NK cells, the migration of activated pNK cells toward CCL5 and CXCL10 gradients was then tracked using an in vitro BBB model setup by a direct contact co-culture of primary human astrocytes and […] human cerebral microvessel endothelial cells (FIG. 12, subpart G).
An in vitro direct contact co-culture blood-brain barrier (BBB) model was established as previously described^53. Briefly, human astrocytes were seeded at a density of 4×10^4 cells/cm^2 into 24-well Transwell® inserts (pore size 5 μm) pre-coated with 2 μg/cm^2 poly-L-lysine and allowed to proliferate/differentiate for 48 hours in media. Media was then removed and the hCMEC/D3 cells suspended into EBM-2 media were seeded at a density of 1×10^5 cells/cm^2.
The co-culture was grown in EBM-2 with media changes every other day for an additional 7 days before studies were conducted. 600 μL of RPMI1640 medium supplemented with 1% FBS containing recombinant CCL5 or CXCL10 at 100 ng/mL was placed in the lower chamber of the Transwell® plate. Activated pNK cells (5×10^5) in 100 μL RPM11640 medium supplemented with 1% FBS were placed into the upper chamber (5-μm pore size). After incubation for 6 hours at 37° C. and 5% CO2, the number of pNK cells that migrated into the lower chamber was determined by flow cytometry. […]

[4] = biological target: T1, CD73 (ecto-5'-nucleotidase, NT5E) on patient-derived GBM43 glioblastoma cells (human, UniProt P21589 27-549); test: immunofluorescence (Protein L) on sections of subcutaneous GBM43 xenograft tumors
T1 construct: whole, on cells; Endogenous surface CD73 of human patient-derived GBM43 cells, in culture or as xenograft tumors
T1 sequence (looked up): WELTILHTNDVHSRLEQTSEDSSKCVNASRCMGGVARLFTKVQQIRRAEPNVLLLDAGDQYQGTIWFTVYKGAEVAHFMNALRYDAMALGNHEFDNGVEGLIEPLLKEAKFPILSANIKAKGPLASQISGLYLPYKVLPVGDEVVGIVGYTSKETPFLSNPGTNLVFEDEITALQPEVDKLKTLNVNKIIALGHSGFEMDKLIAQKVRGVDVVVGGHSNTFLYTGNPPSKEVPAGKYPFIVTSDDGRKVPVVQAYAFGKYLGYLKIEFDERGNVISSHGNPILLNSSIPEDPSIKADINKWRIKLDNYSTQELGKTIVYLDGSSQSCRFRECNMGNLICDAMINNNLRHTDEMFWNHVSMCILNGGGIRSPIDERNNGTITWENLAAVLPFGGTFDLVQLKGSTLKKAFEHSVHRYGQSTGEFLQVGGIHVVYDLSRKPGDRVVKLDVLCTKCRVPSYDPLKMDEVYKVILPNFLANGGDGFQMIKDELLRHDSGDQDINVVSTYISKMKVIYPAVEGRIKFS

[5] = tested on: CD73; test: CD73 activity of GBM43 cells (AMP hydrolysis, malachite green phosphate assay); assay type: cell-based, human
Procedure: To test for CD73 activity and its ability to generate adenosine, GBM43 cells were seeded at 2×10^4 cells per well in a 96-well plate in complete DMEM. After overnight incubation, GBM43 cells were incubated with anti-CD73 scFv following uPA (100 nM)-mediated cleavage from either CD73.mCAR-NK92 or CD73.mCAR-pNK cells during incubation for 6 hours. Then, the cell medium was removed and cells were rinsed three times with phosphate-free buffer (117 mM NaCl, 5.3 mM KCl, 1.8 mM MgCl2, 26 mM NaHCO3, 10 mM glucose, pH 7.4, diluted in ddH2O). AMP (250 μM final), diluted in phosphate-free buffer, was added and incubated for 10 min at 37° C. Finally, the phosphate (Pi) concentrations resulting from AMP hydrolysis were measured using a malachite green phosphate assay kit following the manufacturer's instructions.

Question: For `Cc1ccc(S(=O)(=O)/C=C/C#N)cc1` [BAY11-7082], which “inhibition of the CQ-elevated production of CCL5 and CXCL10” value [1] is on record?
Answer: significantly inhibited

Question: What does the source list for `Nc1ncnc2c1ncn2[C@@H]1O[C@H](CO)[C@@H](O)[C@H]1O` [adenosine]?
Answer: cell viability of pNK cells ([2]; CCK-8): clear negative affect; NKG2D expression on pNK cells ([2]; flow cytometry): decreased

Question: For CXCL10: Recombinant human CXCL10, which “migration of activated pNK cells along ligand gradient across in vitro BBB” value [3] is on record?
Answer: significantly increased

B1: anti-CD73 scFv cleaved by uPA or tumor-associated proteases from Construct 1 (CD73.mCAR) on engineered NK cells (scFv)
scFv: EVQLLESGGGLVQPGGSLRLSCAASGFTFSSYAYSWVRQAPGKGLEWVSAISGSGGRTYYADSVKGRFTISRDNSKNTLYLQMNSLRAEDTAVYYCARLGYGRVDEWGRGTLVTVSSGGGGSGGGGSGGGGSQSVLTQPPSASGTPGQRVTISCSGSLSNIGRNPVNWYQQLPGTAPKLLIYLDNLRLSGVPDRFSGSKSGTSASLAISGLQSEDEADYYCATWDDSHPGWTFGGGTKLTVLGGGGSGGGGSGGGGS
notes: Soluble fragment released from CD73.mCAR-NK92 or CD73.mCAR-pNK cells, by 100 nM uPA in vitro or by tumor proteases in vivo; also called αCD73 scFv; aCD73 scFv; not shown: the cleavage site is
Question: Does B1 bind [4]?
Answer: binds

B2: anti-CD73 scFv: CD73-blocking single chain antibody fragment released from the CAR by uPA / tumor-associated protease cleavage (protein)
scFv: B1 scFv
modifications: left off: small tags and cut ends
Question: With B2 as the molecule, how does the “production of extracellular adenosine by GBM43 cells (CD73 activity)” value ([5]; scFv cleaved by uPA from CD73.mCAR-NK92 cells) read?
Answer: significantly decreased production

Question: And the “ability of GBM43 cells to produce adenosine (CD73 activity)” value ([5]; scFv cleaved from CD73.mCAR-pNK cells)?
Answer: significantly reduced ability to produce adenosine

B3: CCL5: Recombinant human RANTES (CCL5) (protein, UniProt P13501 24-91, looked up)
C-C motif chemokine 5: SPYSSDTTPCCFAYIARPLPRAHIKEYFYTSGKCSNPAVVFVTRKNRQVCANPEKKWVREYINSLEMS
Question: How did the “migration of activated pNK cells along ligand gradient across in vitro BBB” value [3] turn out when B3 was run?
Answer: significantly increased
